Values after ≈ are worked out from the molar mass of the structure shown.
Key:
[1] = system: Staphylococcus hominis DMS 20328; test: Minimum inhibitory concentration (MIC) in microtitre plates; assay type: cell-based; settings: Table 7, 48 hours at 37° C., MIC = ≦20% growth compared to control
Procedure: (§1) Determination of the Minimum Inhibitory Concentration (MIC Value) in Microtitre Plates
(§2) Casein-soybean flour-peptone broth for preparation of pre-cultures of test bacteria and yeast.
(§3) Mycological slant agar for the pre-culture of moulds
(§4) Examples of Test Organisms:
(§5) The test substances are pre-dissolved in dimethyl sulfoxide (DMSO) and tested in a dilution series of 1:2.
(§6) Bacteria and yeast are cultured overnight in CASO broth, the mould is cultured overnight on mycological slant agar, and washed off using 10 ml of 0.85% sodium chloride solution (+0.1% Triton X-100).
(§7) All the test organisms are adjusted to an organism count of 1–5×10^6 CFU/ml using 0.85% sodium chloride solution.
(§8) The test substances are pre-pipetted into microtitre plates in amounts of 8 μl per well.
(§9) Pre-diluted organism suspensions are diluted 1:100 in CASO broth (bacteria and yeast) or Sabouraud 2% glucose broth (mould) and are added in amounts of 192 μl per well to the test substances.
(§10) The test batches are incubated for 48 hours at 37° C. (bacteria and yeast) or for 5 days at 28° C. (mould).
(§11) After incubation, the growth is determined on the basis of the turbidity of the test batches (optical density) at 620 nm in a microplate reader.
(§12) The minimum inhibitory concentration (MIC value) is the concentration of substance at which there is found (compared to the growth of the control) an appreciable inhibition of growth (≦20% growth) of the test organisms.
(§13) One microtitre plate is used for each test organism and substance concentration. All the substances are tested in duplicate.

[2] = system: Escherichia coli NCTC 8196; test: as above; assay type: cell-based; settings: Table 7, 48 hours at 37° C., MIC = ≦20% growth compared to control
Procedure: as §1, §2, §3, §4, §5, §6, §7, §8, §9, §10, §11, §12, §13

SMILES	Minimum inhibitory concentration (MIC) S. hominis [1]	Minimum inhibitory concentration (MIC) E. coli [2]	MIC ([1]; Staphylococcus hominis, DMS20328, read-out: Minimum inhibitory concentration (MIC) S. hominis)	MIC ([2]; Escherichia coli, NCTC8196, read-out: Minimum inhibitory concentration (MIC) E. coli)
CCc1c(C)nc(-c2ccccn2)nc1NCCCCCCCN [compound 4]	>120 µg/mL	>120 µg/mL	–	–
CCc1c(C)nc(-c2ccccn2)nc1NCCCCCCCCN [compound 5]	>120 µg/mL	>120 µg/mL	–	–
CCCCCCCCCCCCCCCCNc1nc(-c2ccccn2)nc(C)c1CC [compound 13]	120 µg/mL (≈ 274 µM)	>120 µg/mL	–	–
Cc1cc(NCCCCCCCN)nc(-c2ccccn2)n1 [compound 16]	>120 µg/mL	>120 µg/mL	–	–
Cc1cc(NCCCCCCCCN)nc(-c2ccccn2)n1 [compound 17]	>80 µg/mL	>80 µg/mL	–	–
CCCCCCCNc1cc(C)nc(-c2ccccn2)n1 [compound 20]	7.5 µg/mL (≈ 26.4 µM)	120 µg/mL (≈ 422 µM)	–	–
CCCCCCCCCCCCCCCCNc1cc(C)nc(-c2ccccn2)n1 [compound 25]	15 µg/mL (≈ 36.5 µM)	>120 µg/mL	–	–
NCCCCCCCNc1cc(C(F)(F)F)nc(-c2ccccn2)n1 [compound 28]	>80 µg/mL	>80 µg/mL	–	–
NCCCCCCCCNc1cc(C(F)(F)F)nc(-c2ccccn2)n1 [compound 29]	>80 µg/mL	>80 µg/mL	–	–
NCCCCCCCCCCCCNc1cc(C(F)(F)F)nc(-c2ccccn2)n1 [compound 31]	5 µg/mL (≈ 11.8 µM)	20 µg/mL (≈ 47.2 µM)	–	–
CCCCCCCCCCCCNc1cc(C(F)(F)F)nc(-c2ccccn2)n1 [compound 36]	–	–	60 µg/mL (≈ 147 µM)	> 120 µg/mL
FC(F)(F)c1cc(NC2CCCCC2)nc(-c2ccccn2)n1 [compound 38]	60 µg/mL (≈ 186 µM)	>120 µg/mL	–	–
FC(F)(F)c1cc(NCCc2ccccc2)nc(-c2ccccn2)n1 [compound 39]	30 µg/mL (≈ 87.1 µM)	>120 µg/mL	–	–
CC(C)c1cc(NCCCCCCCN)nc(-c2ccccn2)n1 [compound 40]	120 µg/mL (≈ 366 µM)	>120 µg/mL	–	–
CC(C)c1cc(NCCCCCCCCN)nc(-c2ccccn2)n1 [compound 41]	120 µg/mL (≈ 351 µM)	>120 µg/mL	–	–
CCCCCCCCCCCCCCCCNc1cc(C(C)C)nc(-c2ccccn2)n1 [compound 49]	>120 µg/mL	>120 µg/mL	–	–
CC(C)c1cc(NC2CCCCC2)nc(-c2ccccn2)n1 [compound 50]	15 µg/mL (≈ 50.6 µM)	>120 µg/mL	–	–
CC(C)c1cc(NCCc2ccccc2)nc(-c2ccccn2)n1 [compound 51]	30 µg/mL (≈ 94.2 µM)	>120 µg/mL	–	–
CC(C)(C)c1cc(NCCCCCCCCN)nc(-c2ccccn2)n1 [compound 53]	80 µg/mL (≈ 225 µM)	>80 µg/mL	–	–
CC(C)(C)c1cc(NCCCCCCCCCCCCN)nc(-c2ccccn2)n1 [compound 55]	7.5 µg/mL (≈ 18.2 µM)	60 µg/mL (≈ 146 µM)	–	–
CCCCCCCCCCCCCCCCNc1cc(C(C)(C)C)nc(-c2ccccn2)n1 [compound 61]	>120 µg/mL	>120 µg/mL	–	–

SMILES	Minimum inhibitory concentration (MIC) S. hominis [1]	Minimum inhibitory concentration (MIC) E. coli [2]	MIC ([1]; Staphylococcus hominis, DMS20328, read-out: Minimum inhibitory concentration (MIC) S. hominis)	MIC ([2]; Escherichia coli, NCTC8196, read-out: Minimum inhibitory concentration (MIC) E. coli)
Cc1nc(-c2ccccn2)nc(NCCCCCCCN)c1C(C)C [compound 64]	30 µg/mL (≈ 87.8 µM)	>120 µg/mL	–	–
Cc1nc(-c2ccccn2)nc(NCCCCCCCCCCCCN)c1C(C)C [compound 67]	5 µg/mL (≈ 12.1 µM)	20 µg/mL (≈ 48.6 µM)	–	–
CCCCCCCCCCCCNc1nc(-c2ccccn2)nc(C)c1C(C)C [compound 72]	15 µg/mL (≈ 37.8 µM)	>120 µg/mL	–	–
CCCCCCCCCCCCCCCCNc1nc(-c2ccccn2)nc(C)c1C(C)C [compound 73]	120 µg/mL (≈ 265 µM)	>120 µg/mL	–	–
Cc1nc(-c2ccccn2)nc(NC2CCCCC2)c1C(C)C [compound 74]	60 µg/mL (≈ 193 µM)	>120 µg/mL	–	–
Cc1nc(-c2ccccn2)nc(NCCc2ccccc2)c1C(C)C [compound 75]	30 µg/mL (≈ 90.2 µM)	>120 µg/mL	–	–
COCCc1cc(NCCCCCCCN)nc(-c2ccccn2)n1 [compound 76]	40 µg/mL (≈ 116 µM)	>80 µg/mL	–	–
CCCCCCCNc1cc(CCOC)nc(-c2ccccn2)n1 [compound 80]	30 µg/mL (≈ 91.3 µM)	>120 µg/mL	–	–
CCCCCCCCNc1cc(CCOC)nc(-c2ccccn2)n1 [compound 81]	15 µg/mL (≈ 43.8 µM)	>120 µg/mL	–	–
CCCCCCCCCNc1cc(CCOC)nc(-c2ccccn2)n1 [compound 82]	7.5 µg/mL (≈ 21 µM)	120 µg/mL (≈ 337 µM)	–	–
CCCCCCCCCCCCNc1cc(CCOC)nc(-c2ccccn2)n1 [compound 84]	15 µg/mL (≈ 37.6 µM)	120 µg/mL (≈ 301 µM)	–	–
CCCCCCCCCCCCCCCCNc1cc(CCOC)nc(-c2ccccn2)n1 [compound 85]	120 µg/mL (≈ 264 µM)	120 µg/mL (≈ 264 µM)	–	–
COCCc1cc(NC2CCCCC2)nc(-c2ccccn2)n1 [compound 86]	120 µg/mL (≈ 384 µM)	>120 µg/mL	–	–
COCCc1cc(NCCc2ccccc2)nc(-c2ccccn2)n1 [compound 87]	30 µg/mL (≈ 89.7 µM)	120 µg/mL (≈ 359 µM)	–	–
CCc1c(C)nc(-c2ccccn2)nc1NCc1ccccc1 [compound 88]	120 µg/mL (≈ 394 µM)	120 µg/mL (≈ 394 µM)	–	–
Cc1cc(NCc2ccccc2)nc(-c2ccccn2)n1 [compound 91]	30 µg/mL (≈ 109 µM)	>120 µg/mL	–	–
FC(F)(F)c1cc(NCc2ccccc2)nc(-c2ccccn2)n1 [compound 94]	>120 µg/mL	>120 µg/mL	–	–
CCCCCCCCCCCNc1cc(C(F)(F)F)nc(-c2ccccn2)n1 [compound 95]	120 µg/mL (≈ 304 µM)	>120 µg/mL	–	–
CCCCCCCCCCCCCCCNc1cc(C(F)(F)F)nc(-c2ccccn2)n1 [compound 96]	120 µg/mL (≈ 266 µM)	120 µg/mL (≈ 266 µM)	–	–
CC(C)c1cc(NCc2ccccc2)nc(-c2ccccn2)n1 [compound 97]	15 µg/mL (≈ 49.3 µM)	120 µg/mL (≈ 394 µM)	–	–

Reference: patent US7015228B2, “4-amino-2-(2-pyridyl)pyrimidines as microbicidal active substances” (Ciba Specialty Chemicals Corporation, priority 2001, dated 2006)
